# Laboratory results reported in publication PMC3715888, “A Fully Unsupervised Compartment-on-Demand Platform for Precise Nanoliter Assays of Time-Dependent Steady-State Enzyme Kinetics and Inhibition” (Analytical Chemistry, 2013).
# Where a name gives a salt, the structure may show the parent alone.
# Biological target: sweet almond β-glucosidase
# Assay: droplet absorbance assay of 4-nitrophenyl glucopyranoside hydrolysis ([…] nm); IC50 […] converted to Ki by Cheng-Prusoff
# Format: biochemical, Prunus dulcis
smiles,measurement,value
"OC[C@H]1NC[C@H](O)[C@@H](O)[C@@H]1O [DNM, 1-deoxynojirimycin hydrochloride]",Ki,~36 µM
